How the values were obtained:
[1] = TLC of liver extracts of mice injected with liposomes; type: in vivo; conditions: 24 h and 48 h post-injection of DiI/Cy5-DSPE liposomes
Description: For extraction using a modified Bligh-Dyer method, 50-100 mg tissue was homogenized as described above, 10 parts of chloroform/methanol (2:1) were added to the homogenate (considering that tissue weight is 1 part), and the samples were mixed at 1400 rpm for 2 h at room temperature on Eppendorf Thermomixer. The tubes were centrifuged at 500 g for 10 min. The organic phase (bottom, approximately 80% of the added amount) was carefully collected, dotted on a PVDF membrane and scanned for DiI and Cy5 fluorescence as described above. Different dilutions of liposomes (standard curve) were scanned together with the samples. The percentage of the injected DiI and Cy5 in the extract was calculated from the standard curve and divided by tissue weight. The fluorescence of control non-injected organs was subtracted from that of injected organs. For TLC analysis, the mobile phase consisted of chloroform: methanol (9:1) with 1% trifluoroacetic acid and the samples were run on TLC Silica Gel 60 F254 plates (EMD Millipore).

[2] = Ex vivo fluorescence imaging of excised tumors and livers; type: in vivo, mice
Description: Tumors and livers were placed in a 24-well plate and scanned as described above. To match the intensity of the channels, the same liposomes used for injection were diluted (1:10), dotted on a 0.45 μm nitrocellulose membrane, and scanned together with the samples. Mean fluorescence was determined from 8-bit TIFF images using Fiji software by drawing a region of interest around the tumors and using the “Measure” function to determine mean gray values. Such measurement is independent of the organ cross-section area. The mean gray values of non-injected tumors were subtracted from the measurements. For plasma fluorescence profile, plasma collected at different time points was serially diluted, dotted on a nitrocellulose membrane, scanned as above, and the mean fluorescence of dots was plotted versus time with Prism.

[3] = tested on: syngeneic intracranial GL261 glioma; test: Confocal microscopy of brain slices of GL261 glioma mice after i.v. dual-labeled liposomes; type: in vivo; conditions: 48 h post-injection, EPC/DSPE-PEG2000 liposomes, 0.2% DiI and 0.2% Cy5-DSPE
Description: (§1) 4T1 cell line was purchased from the ATCC and verified using a sequencing core. GL261 cells were obtained from the National Cancer Institute (NCI), and CT2A cells were a gift from Dr. Tom Seyfried (Boston College). LY2 cells were from Dr. Sana Karam, University of Colorado Anschutz Medical campus. Cells were grown at 37° C. in RPMI 1640 medium containing 10% heat-inactivated fetal bovine serum, 10 mM HEPES, 100 U/ml penicillin, and […] streptomycin (all from Corning Inc. New York, NY, USA). BALB/c mice were bred in-house. Mice of 8-10 weeks of age (females) were implanted with 0.5×10^6 cells into the mammary fat pad (4T1) or subcutaneously in the jaw region (LY2) and used for experiments 1 week later when tumors reached ˜200-300 mm^3. […]
Nikon Eclipse AR1HD inverted confocal microscope with 405 nm, 488 nm, 561 nm, and 640 nm excitation lasers and corresponding emission filters was used. […] For quantification, multiple random image areas from different slices of the tumor (both periphery and center) were acquired at 512×512 resolution. Images were quantified with Fiji using customized macros. Briefly, 8-bit gray image stacks were thresholded for fluorescence in the Cy3 and Cy5 channels and the percentages of binary (positive) areas were calculated using the “Measure” function. […]

[4] = tested on: 4T1 tumor cells and F4/80+ tumor-associated macrophages; test: Flow cytometry of 4T1 tumor single-cell suspension after i.v. labeled liposomes; type: in vivo, mice; conditions: 72 h after a single i.v. injection; liposomes labeled with 0.2% dye
Description: as §1, with “mm^3. For brain tumors, C57BL/6 mice (6-8 weeks old) were implanted with a total 1×10^5 GL261 or CT-2A cells per animal using an established protocol.” for “mm^3.”
A single-cell suspension of tumor tissue was prepared for flow cytometry analysis, as previously described. […] After incubation on ice for 20 minutes and washing, cells were analyzed for staining using the Guava EasyCyte HT flow cytometer (Merck KGaA). Cells were resuspended at ˜0.5 million/ml, and 20,000 events were detected. Dead cells and fragments were excluded with FSC/SSC dot plot, and the percentage of Cy5+ cells was analyzed with FlowJo software Version 10.6 (FlowJo, LLC). […]

[5] = Plasma fluorescence elimination profile after liposome injection; type: in vivo, mice; conditions: 24 h post-injection; DiI/Cy5-DSPE liposomes
Description: as §1, with “mm^3. For brain tumors, C57BL/6 mice (6-8 weeks old) were implanted with a total 1×10^5 GL261 or CT-2A cells per animal using an established protocol.” for “mm^3.”
Tumors and livers were placed in a 24-well plate and scanned as described above. […] Mean fluorescence was determined from 8-bit TIFF images using Fiji software by drawing a region of interest around the tumors and using the “Measure” function to determine mean gray values. […] For plasma fluorescence profile, plasma collected at different time points was serially diluted, dotted on a nitrocellulose membrane, scanned as above, and the mean fluorescence of dots was plotted versus time with Prism.

CCCCCCCCCCCCCCCCCC(=O)OC[C@H](COP(=O)(O)OCCNC(=O)CCCCCN1C(=CC=CC=CC2=[N+](C)c3ccccc3C2(C)C)C(C)(C)c2ccccc21)OC(=O)CCCCCCCCCCCCCCCCC [Cy5-DSPE]
TLC of liver extracts of injected mice [1]: degradation and disappearance
fluorescence in liver images over time ([2]; livers, later time points versus 1 h): decrease
fluorescence in tumor images over time ([2]; tumors, 1 h, 24 h, 48 h post-injection): plateaued at 24 h and dropped at 48 h
accumulation and spreading in glioma [3]: almost complete absence
accumulation in cells in the tumor [4]: minimal accumulation
dye cleared from the circulation [5]: approximately 80%
